US12037324B2, “Biarylmethyl heterocycles” (Université de Montréal, priority 2016, dated 2024)
Read-outs that look alike come from different tables or passages of the source.

Assays:
AGTR1 [1] = biological target: T1, AGTR1 (Homo sapiens, UniProt P30556); experiment: DiscoveRx β-arrestin2 recruitment assay (enzyme complementation, Pathunter CHO-K1 AGTR1 β-arrestin cell line); assay type: cell-based; conditions: DiscoveRx β-arrestin2 recruitment; for DiscoveRx β-arrestin2 Ymax (%): maximal response
T1 construct: host or cells: Pathunter CHO-K1 AGTR1 β-arrestin cell line (CHO-K1)
T1 sequence (P30556 1-359): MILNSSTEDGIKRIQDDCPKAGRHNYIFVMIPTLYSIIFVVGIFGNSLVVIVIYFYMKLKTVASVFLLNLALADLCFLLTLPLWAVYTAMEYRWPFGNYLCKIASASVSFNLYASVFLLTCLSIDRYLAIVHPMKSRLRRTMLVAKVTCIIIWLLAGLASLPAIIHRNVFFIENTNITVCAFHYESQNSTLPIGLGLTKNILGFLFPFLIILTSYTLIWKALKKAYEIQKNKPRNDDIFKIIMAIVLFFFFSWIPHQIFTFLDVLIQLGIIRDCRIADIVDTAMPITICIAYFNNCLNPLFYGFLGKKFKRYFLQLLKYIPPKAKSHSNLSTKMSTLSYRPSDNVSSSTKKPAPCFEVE
How it was run: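 CHO-K1 cells expressing AGTR1 with β-arrestin2 enzyme-complementation reporter, plated 14-16 h ahead in 1% serum medium, then exposed to compounds for 90 min at 37° C. Chemiluminescence read after 1 h detection. EC50 (agonist) or IC50 (antagonist) from 4-parameter logistic fit; activity as percentage of All maximal effect.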

AGTR1 [2] = biological target: T1, AGTR1; experiment: DiscoveRx IP1 accumulation assay (HTRF), agonist mode, Pathunter CHO-K1 AGTR1 β-arrestin cell line; assay type: cell-based; conditions: for EC50: read-out: IP-1 EC50
How it was run: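 Agonist mode in CHO-K1 AGTR1 β-arrestin cells plated 14-16 h before; compounds at varying concentrations for 90 min at 37° C, IP1 accumulation read by HTRF (D2-conjugate and anti-IP1 cryptate, 20 min room temperature). EC50 from 4-parameter logistic fit; activity given as percentage of maximal AII effect.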

hAT1R [3] = biological target: T2, hAT1R (Homo sapiens, UniProt P30556); experiment: cell-based
T2 sequence (P30556 1-359): T1 sequence (P30556 1-359)

hAT1R [4] = biological target: T2, hAT1R; experiment: cell-based; conditions: agonist mode; for EC50: read-out: BRET P63 EC50
[5] = Low AT1R Expression, read-out: BRET β-Arrestin2 Low AT1R Expression EC50
[6] = section of the 42nd table ending at r951, example numbering restarts after the DiscoveRx section, read-out: β-arrestin2 EC50

| SMILES | EC50 (AGTR1 [1]) | DiscoveRx β-arrestin2 Ymax (%) (AGTR1 [1]) | IP-1 Ymax (%) (AGTR1 [2]) | EC50 (AGTR1 [2]) | BRET β-Arrestin2 Low AT1R Expression Ymax (%) (hAT1R [3]; Low AT1R Expression) | EC50 (hAT1R [3]; [5]) | BRET P63 Ymax (hAT1R [4]) | EC50 (hAT1R [4]) | EC50 (hAT1R [3]; [6]) |
| --- | --- | --- | --- | --- | --- | --- | --- | --- | --- |
| CCc1nc2c(C)cc(C)nc2n1Cc1ccc(-c2cc(-c3ccc(F)cn3)ccc2-c2nn[nH]n2)cc1 [Example 65] | 27.3 nM | 31.0% | 12.2% | 62.7 nM | 54.5% | 23.6 nM | 13.1% | 17.2 nM | – |
| CCc1nc2c(C)cc(C)nc2n1Cc1ccc(-c2cc(-c3cc(C)c(F)cn3)ccc2-c2nn[nH]n2)cc1 [Example 66] | 5.8 nM | 25.8% | 6.9% | 8.5 nM | 39.4% | 16.6 nM | – | > 10000 nM | – |
| CCc1nc2c(C)cc(C)nc2n1Cc1ccc(-c2cc(-c3cc(C(F)F)ccn3)ccc2-c2nn[nH]n2)cc1 [Example 67] | 19.3 nM | 30.9% | 10.2% | 26.5 nM | 40.7% | 14.5 nM | 14.3% | 7.3 nM | – |
| CCc1nc2c(C)cc(C)nc2n1Cc1ccc(-c2cc(C3CCCOC3)ccc2-c2nn[nH]n2)cc1 (stereo not shown) [Example 79] | 286 nM | 31.7% | 9.4% | 499 nM | 21.1% | 464 nM | – | > 10000 nM | – |
| CCc1nc2c(C)cc(C)nc2n1Cc1ccc(-c2cc(C3CCCC3)ccc2-c2nn[nH]n2)cc1 [Example 80, 3-((5′-cyclopentyl-2′-(2H-tetrazol-5-yl)-[1,1′-biphenyl]-4-yl)methyl)-2-ethyl-5,7-dimethyl-3H-imidazo[4,5-b]pyridine] | 73.4 nM | 33.5% | 14.6% | 425 nM | 29.8% | 30.4 nM | – | > 100000 nM | – |
| CCc1nc2c(C)cc(C)nc2n1Cc1ccc(-c2cc(C3CCCCCC3)ccc2-c2nn[nH]n2)cc1 [Example 81] | 38.3 nM | 17.6% | – | > 100000 nM | 16.3% | 38.3 nM | – | > 100000 nM | – |
| CCc1nc2c(C)cc(C)nc2n1Cc1ccc(-c2cc(N3CCCCC3)ccc2-c2nn[nH]n2)cc1 [Example 91] | 60.6 nM | 22.6% | – | > 100000 nM | – | > 10000 nM | – | > 100000 nM | – |
| CC1=NC2(CCCC2)C(=O)N1Cc1ccc(-c2cc(-c3ccccc3)ccc2-c2nn[nH]n2)cc1 [Example 110, 3-((6′-(2H-tetrazol-5-yl)-[1,1′:3′,1″-terphenyl]-4-yl)methyl)-2-methyl-1,3-diazaspiro[4.4]non-1-en-4-one] | 35.9 nM | 26.9% | 9.0% | 108 nM | 22.1% | 95.5 nM | – | > 100000 nM | – |
| CC1=NC2(CCCC2)C(=O)N1Cc1ccc(-c2cc(-c3cc(C)ccn3)ccc2-c2nn[nH]n2)cc1 [Example 111, 2-methyl-3-((5′-(4-methylpyridin-2-yl)-2′-(2H-tetrazol-5-yl)-[1,1′-biphenyl]-4-yl)methyl)-1,3-diazaspiro[4.4]non-1-en-4-one] | 6.4 nM | 63.3% | 15.7% | 12.6 nM | 80.7% | 14.7 nM | 24.1% | 22.3 nM | – |
| CCC1=NC2(CCCC2)C(=O)N1Cc1ccc(-c2cc(-c3cc(C)ccn3)ccc2-c2nn[nH]n2)cc1 [Example 113] | 14.9 nM | 66.3% | 17.8% | 83.5 nM | 88.6% | 9.8 nM | 28.6% | 17.2 nM | – |
| CCCC1=NC2(CCCC2)C(=O)N1Cc1ccc(-c2cc(-c3cc(OC)ccn3)ccc2-c2nn[nH]n2)cc1 [Example 115, 3-((5′-(4-methoxypyridin-2-yl)-2′-(2H-tetrazol-5-yl)-[1,1′-biphenyl]-4-yl)methyl)-2-propyl-1,3-diazaspiro[4.4]non-1-en-4-one] | 13.3 nM | 30.8% | 13.6% | 39.3 nM | 53.3% | 16.8 nM | 22.1% | 11.9 nM | – |
| CCCC1=NC2(CCCC2)C(=O)N1Cc1ccc(-c2cc(-c3cc(C)ccn3)ccc2-c2nn[nH]n2)cc1 [Example 116, 3-((5′-(4-methylpyridin-2-yl)-2′-(2H-tetrazol-5-yl)-[1,1′-biphenyl]-4-yl)methyl)-2-propyl-1,3-diazaspiro[4.4]non-1-en-4-one] | 14.1 nM | 42.1% | 15.1% | 39.7 nM | 81.9% | 17.2 nM | 27.7% | 14.7 nM | – |
| Cc1ccnc(-c2ccc(-c3nn[nH]n3)c(-c3ccc(CN4C(=O)C5(CCCC5)N=C4C(C)C)cc3)c2)c1 [Example 118] | 66 nM | 50.0% | 17.1% | 155 nM | 78.7% | 173 nM | 21.8% | 102 nM | – |
| COc1ccnc(-c2ccc(-c3nn[nH]n3)c(-c3ccc(CN4C(=O)C5(CCCC5)N=C4C4CC4)cc3)c2)c1 [Example 119, 2-cyclopropyl-3-((5′-(4-methoxypyridin-2-yl)-2′-(2H-tetrazol-5-yl)-[1,1′-biphenyl]-4-yl)methyl)-1,3-diazaspiro[4.4]non-1-en-4-one] | 47.5 nM | 51.4% | 18.4% | 108 nM | 63.9% | 53.9 nM | 21.8% | 40.5 nM | – |
| Cc1ccnc(-c2ccc(-c3nn[nH]n3)c(-c3ccc(CN4C(=O)C5(CCCC5)N=C4C4CC4)cc3)c2)c1 [Example 120, 2-cyclopropyl-3-((5′-(4-methylpyridin-2-yl)-2′-(2H-tetrazol-5-yl)-[1,1′-biphenyl]-4-yl)methyl)-1,3-diazaspiro[4.4]non-1-en-4-one] | 12.5 nM | 44.5% | 20.7% | 75.3 nM | 50.1% | 34.3 nM | 17.8% | 18.4 nM | – |
| CCCCC1=NC2(CCOCC2)C(=O)N1Cc1ccc(-c2cc(-c3cccc(C)c3)ccc2-c2nn[nH]n2)cc1 [Example 155, 2-butyl-3-((3″-methyl-6′-(2H-tetrazol-5-yl)-[1,1′:3′,1″-terphenyl]-4-yl)methyl)-8-oxa-1,3-diazaspiro[4.5]dec-1-en-4-one] | 40.8 nM | 32.0% | – | > 100000 nM | – | – | – | > 100000 nM | 42.7 nM |
| CCCCC1=NC2(CCOCC2)C(=O)N1Cc1ccc(-c2cc(-c3ccccc3)ccc2-c2nnn[nH]2)cc1 [Example 156] | 85.1 nM | 19.9% | 7.2% | 189 nM | – | – | – | > 100000 nM | 250 nM |
| CCCCC1=NC2(CCOCC2)C(=O)N1Cc1ccc(-c2cc(-c3ccccc3O)ccc2-c2nnn[nH]2)cc1 [Example 157] | 30.3 nM | 44.7% | 11.4% | 60.1 nM | – | – | 16.5% | 37.6 nM | 61.1 nM |
| CCCCC1=NC2(CCOCC2)C(=O)N1Cc1ccc(-c2cc(-c3cc(C)ccn3)ccc2-c2nn[nH]n2)cc1 [Example 171, 2-butyl-3-((5′-(4-methylpyridin-2-yl)-2′-(2H-tetrazol-5-yl)-[1,1′-biphenyl]-4-yl)methyl)-8-oxa-1,3-diazaspiro[4.5]dec-1-en-4-one] | 33.5 nM | 38.6% | 68.1% | 8120 nM | – | – | 20.1% | 30.9 nM | 68.4 nM |
| CC1=NC2(CCOCC2)C(=O)N1Cc1ccc(-c2cc(-c3ccccc3)ccc2-c2nn[nH]n2)cc1 [Example 172, 3-((6′-(2H-tetrazol-5-yl)-[1,1′:3′,1″-terphenyl]-4-yl)methyl)-2-methyl-8-oxa-1,3-diazaspiro[4.5]dec-1-en-4-one] | 196 nM | 27.1% | 9.4% | 782 nM | – | – | – | > 10000 nM | > 10000 nM |
